Measured values published in patent US8569384B2, “Antimicrobial compositions” (3M Innovative Properties Company, priority 2006, dated 2013).
Structures can show the parent of a compound that is named as a salt.

Tested on: E. faecalis; ATCC #10741
Assay: Direct Inoculation Filter Assay (residual efficacy on filter paper)
Assay type: cell-based, Enterococcus faecalis
Conditions: 2.0% ester with 4.0% cetyl alcohol and CHG in dried waxy coatings (Table 3)
Procedure: Direct Innoculation Filter Assay
This is an in vitro assay using filter paper to compare the residual efficacy of different surgical skin prep formulations.
Phosphate Buffered Water solution (PBW) was made by making a 0.25M stock solution by putting 34 grams KH2PO4 into 500 mL of DI water, adjusting the pH to 7.2 with 10N NaOH, and adding enough DI water to make 1 liter. The solution was filtered, sterilized, dispensed into a 1 liter sterile bottle, and stored under refrigeration. Butterfield's PBW was made by adding 1.25 mL of the stock solution to 900 mL of DI water and adding neutralizers, stirring, heating to dissolve the components, and diluting to 1 liter with DI water. The solution was mixed well, dispensed into two 500-mL bottles. The bottles containing the solution were autoclaved for 25 minutes at 121 degree C. The contents were carefully swirled after removing the bottles from the autoclave.
A Standard Sampling Solution (SSS) was prepared which contained: 0.4 grams KH2PO4, 10.1 grams Na2HPO4, 1.0 gram TRITON X-100 surfactant, 3.0 grams lecithin, 30.0 grams TWEEN 80, and deionized water to bring the total volume to 1 liter. […]
Onto each filter disc was pipetted 25 μL of each Example preparation or control. […] After 48 hours, colonies were counted and recorded.
The CFU/mL was determined by multiplying CFU count by dilution rate. The CFU/sample was calculated by multiplying the CFU/mL by 20, the amount of the SSS dilution. The log10 of the CFU/sample was calculated. […]

Compound | Effect of emollient ester on bactericidal activity of the CHG
CC(C)OC(=O)CCCCC(=O)OC(C)C [diisopropyl adipate, Diisopropyl adipate] | significantly enhanced the bactericidal activity of the CHG
CCCCOC(=O)CC(O)(CC(=O)OCCCC)C(=O)OCCCC [tributyl citrate, Tributyl citrate] | significantly enhanced the bactericidal activity of the CHG
CCCCCCCCCCCCCCCC(=O)OC(C)C [isopropyl palmitate, Isopropyl palmitate] | did not enhance the activity of the CHG
